Data: US20140342392A1, “OPTIMIZED INSECT-BASED EX VIVO MODEL FOR TESTING BLOOD-BRAIN BARRIER PENETRATION AND METHOD FOR EXPOSING INSECT BRAIN TO CHEMICAL COMPOUNDS” (ENTOMOPHARM ApS, priority 2011, published 2014)

Test system: locust brain (blood-brain barrier)
Conditions: co-treatment with verapamil, brain removed from the cuticula, also after removal of the neural lamella
Procedure: 1. […] The insects may be obtained from local suppliers or bred in house. The grasshoppers were reared under crowded conditions at 28° C. and a 12:12 dark:light photocycle and fed fresh grass and bran. Before experiments the grasshoppers were fed ecologically cultivated wheat for two weeks. Animals used are adult males (in some experiments females) between two to four weeks after adult emergence. […] After various times of exposure the preparation is washed in saline and the brain is dissected under microscope with fine forceps. The neural lamella surrounding the brain is removed in saline and the brain is then […] in saline, centrifuged and the supernatant frozen until analyses. Drug concentration is analysed by HPLC, LC/MSMS or other methods.

SMILES: C=C[C@H]1C[N@@]2CC[C@H]1C[C@@H]2[C@@H](O)c1ccnc2ccc(OC)cc12 [quinidine]
- brain concentration with versus without Pgp inhibitor (FIG. 2): higher after co-treatment with the Pgp inhibitor verapamil
